Patent US9714239B2, “N-phenyl-lactam derivatives capable of stimulating neurogenesis and their use in the treatment of neurological disorders” (Hoffmann-La Roche Inc., priority 2014, dated 2017)

Each compound was assayed on human embryonic stem cell derived neural stem cells (NSCs) (assay: Neurogenesis assay: neural stem cell proliferation assay). Conditions: 96 h, compound concentration at which 150% activity of control (100%) is reached, increase in cells based on ATP levels (CellTiterGlo), 4 days incubation, dose response 8 μM to 8 nM.
Protocol: Neural Stem Cell Proliferation Assay
Neurogenic properties of small molecules are determined based on the proliferation of human embryonic stem cell derived neural stem cells (NSCs) which were derived via a dual smad inhibition as previously described (Chambers, S. M., et al., Highly efficient neural conversion of human ES and iPS cells by dual inhibition of SMAD signaling, Nature biotechnology, 2009 27(3): p. 275-80.).
Compounds response is measured by the increase in cells based on ATP levels (Promega:CellTiterGlo®) after an incubation period of 4 days. NSCs are thawed and expanded over 3 passages. On the 14th day, NSCs are seeded in Polyornithin/Laminin coated 384 well plates at a cell density of 21,000 cells/cm^2 in a media volume of 38 μl.
4 hours after cell seeding, compound solutions are added at a volume of 2 μl. Stock solutions of the compounds (water, 5% DMSO) are diluted to obtain a dose response (11 points, dilution factor is 2), ranging from 8 μM to 8 nM. Controls are run to consistently determine the neurogenic properties of the cells:
Negative (neutral) control is cell culture Media (final DMSO concentration: 0.25%).
1. cell culture Media+100 ng/ml FGF2 (final DMSO concentration: 0.1%)
2. cell culture Media+20 ng/ml EGF (final DMSO concentration: 0.1%)
3. cell culture Media+100 ng/ml Wnt3a (final DMSO concentration: 0.1%)
After 4 days incubation at 37° C., 5% CO2, the amount of ATP per well is quantified. The ATP concentration is proportional to the cell number. ATP is quantified by using the Promega CellTiterGlo® kit. The CellTiterGlo® reagents contain a cell lysis buffer, a thermo stable luciferase (UltraGlo™ recombinant luciferase), magnesium and luciferin. Luciferin reacts with ATP producing oxyluciferin, AMP and light. The luminescence signal is proportional to the ATP content.
The value of negative (neutral) control is determined for each assay plate by taking the average of 16 negative control wells. The neurogenic compound response is calculated for each compound as (compound/Negative Control)*100. The values of EC150 from the dose response curve are determined for each test compound. The EC150 is the compound concentration at which 150% activity of control (100%) is reached.

Row | Structure (SMILES) | EC (150% of control)
1 | O=C1N(Cc2ccccc2F)CCN1c1ccc(-c2cnco2)cc1 [Example 73, 1-[(2-Fluorophenyl)methyl]-3-[4-(1,3-oxazol-5-yl)phenyl]imidazolidin-2-one] | 1.49 µM
2 | COc1cc(N2CCN(Cc3ccccc3F)C2=O)ccc1-c1cnco1 [Example 74, 1-[(2-Fluorophenyl)methyl]-3-[3-methoxy-4-(1,3-oxazol-5-yl)phenyl]imidazolidin-2-one] | 2.7 µM
3 | COc1cc(N2CCN(Cc3cccc(F)c3)C2=O)ccc1-c1cnco1 [Example 75, 1-[(3-Fluorophenyl)methyl]-3-[3-methoxy-4-(1,3-oxazol-5-yl)phenyl]imidazolidin-2-one] | 0.597 µM
